Legend:
Aβ1-42 = molecular target: T1, Aβ1-42 (Homo sapiens, UniProt P05067); test: Inhibition of the precipitation of Aβ1-42 by the addition of ligand (Micro BCA assay of soluble/aggregated peptide); format: biochemical; settings: Aβ1-42 5 μM, pH 7.4; for CuCl2 % soluble Aβ: 20 μM CuCl2, 1 h 37° C. then 1 h with 200 μM ligand; for FeCl3 % soluble Aβ: 20 μM FeCl3, 1 h 37° C. then 1 h with 200 μM ligand; for ZnCl2 % soluble Aβ: 20 μM ZnCl2, 1 h 37° C. then 1 h with 200 μM ligand; for without metal % soluble Aβ: no metal salt, 1 h 37° C. then 1 h with 200 μM ligand
T1 construct: The β-amyloid peptide Aβ1-42 (Aβ1-42) was synthesised, purified (to a purity greater than 95%); made in house; host or cells: chemical peptide synthesis (no expression host)
Protocol: After a further hour of incubation, the reaction mixture is centrifuged.
Before use, the water [of Milli-Q Millipore quality] and all buffer solutions were treated on Chelex-100 resin (Biorad) (5 mg/ml) and filtered through 0.2 μm filters (Whatman) to remove potential traces of metal ions or particles.
Working solutions of the peptide were prepared by solubilising 1 mg of lyophilised peptide in 500 μl of water and 500 μl of an aqueous NaOH solution pH=12.0, while stirring in a Thermomixer Comfort (Eppendorf). The peptide preparations are subsequently centrifuged for 10 minutes at 9,000 rpm and the supernatant is used as an “Aβ stock” solution. The concentration of peptide in the “Aβ stock” is determined immediately by colorimetric assay using a Micro BCA Protein Assays kit (Pierce) from standard ranges produced using known amounts of bovine serum albumin (BSA) then the Aβ1-42 peptide solution is aliquoted and frozen rapidly in liquid nitrogen prior to being stored at −20° C. until being used.
Salts are generated by adding one hydrochloric acid equivalent per nitrogen group equivalent of the ligand dissolved in DMSO. After evaporation of the solvent, these salts are dissolved at the desired concentration with DMSO and kept at −20° C. until they are used.
The protocol was established from works by: C. S. Atwood et al., J. Neurochem. […] The final concentrations are given. 500 μl of Aβ1-42 (5 μM is set to aggregate in 20 mM Tris-HCl buffer containing 150 mM NaCl (pH=7.4) for 1 hour at 37° C. while stirring at 1,400 rpm in the absence or presence of metal ions: CuCl2, ZnCl2 or FeCl3 (20 μM). Then 50 pi of ligand to be tested (200 μM) dissolved in DMSO are added and the samples are incubated for 1 further hour at 37° C. while stirring at 1,400 rpm. The samples without ligand also receive 50 μl of DMSO. The samples (final volume=550 μ) are subsequently centrifuged for 20 min at 9,000 rpm, and 500 μl of supernatant are removed. The tube containing the precipitation pellet then receives 450 μl of assay buffer/DMSO mixture (91/9, v/v). […] Quantification is carried out on the basis of standard BSA ranges. The amounts of Aβ1-42 actually contained in the pellet and the supernatant are obtained after a correction due to the presence of a residual portion of supernatant in the pellet-containing fraction.
For the control experiments with derivatives comprising a single quinoline residue, […] of ligand were added because complexes of type L2Cu are conventionally used in these cases.

[1] = Hydrogen peroxide produced by Aβ1-42 in the presence of CuCl2, ascorbate, air and ligand (Amplex Red H2O2/HRP); format: biochemical; settings: CuCl2 0.4 μM, ascorbate 10 μM, air
Protocol: (§1) FIG. 11: Variation in H2O2 production by copper complexes of Aβ1-42 peptide as a function of the Cu(II)/Aβ stoichiometry. Experiments are carried out for 5 minutes in a sodium phosphate buffer (pH=7.4) in the presence 0.4 μM CuCl2, 10 μM ascorbate and air with or without 0.4 μM of 3 or 7. The H2O2 released is quantified by means of an Amplex-Red H2O2/HRP Assay kit.
(§2) The final concentrations are given. The reactions were carried out in the dark in mM sodium phosphate buffer (pH=7.4). Aβ1-42 (0.2 μM) and CuCl2 (0.4 μM) were pre-incubated for 1 hour at 37° C. while stirring at 1,400 rpm in 375 μl of buffer. Then 2 μl of a solution of ligand to be investigated (0.2; 0.4 or 0.8 μM) in DMSO were added. After incubation for a further hour, 2 μl of an aqueous sodium ascorbate solution (10 μM) were added and incubation was continued for 5 min while stirring. The amount of H2O2 produced is then quantified using an Amplex Red H2O2/HRP Assay Kit (Molecular Probes) while adding a volume of assay reagent to the samples, then incubating them for 1 hour at 37° C. while stirring at 500 rpm. […] Quantification is carried out on the basis of standard curves obtained with known amounts of H2O2.
(§3) The figures in the tables correspond to the amount of H2O2 (expressed in nanomoles) added using an Amplex Red H2O2/HRP Assay kit.

[2] = molecular target: T2, copper complexes of Aβ1-42 peptide (Homo sapiens, UniProt P05067); test: as above; format: biochemical; settings: CuCl2 0.4 μM, ascorbate 10 μM, air
T2 construct: The β-amyloid peptide Aβ1-42 (Aβ1-42) was synthesised, purified (to a purity greater than 95%); made in house; host or cells: chemical peptide synthesis (no expression host)
Protocol: as §1, §2, §3

[3] = Determination of log D7.4 (1-octanol / Tris-HCl buffer); format: physicochemical; settings: 1-octanol / 20 mM Tris-HCl buffer containing 150 mM NaCl (pH = 7.4) (1/1, v/v)
Protocol: The ligand (2.0 mg) is dissolved in 2 ml of 1-octanol then 2 ml of 20 mM Tris-HCl buffer, pH=7.4 containing 150 mM NaCl are added. After mixing in a vortex for 3 min at ambient temperature, followed by centrifugation for 5 min at 9,000 rpm, the concentration of the ligand in each phase is determined by UV-visible spectrophotometry. The 1-octanol fractions are thus redivided until reproducible values of coefficient of division of obtained. This coefficient is expressed as the decimal logarithm of [(the concentration of ligand contained in the 1-octanol phase)/(the concentration of ligand contained in the buffered aqueous phase)]=log D7.4. Measurements were taken three times.

T1 sequence (P05067 672-713): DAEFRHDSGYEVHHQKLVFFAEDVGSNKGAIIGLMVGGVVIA
T2 sequence (P05067 672-713 limits assumed, one chain of several): as the sequence (P05067 672-713) above

Row | Compound | CuCl2 % soluble Aβ (Aβ1-42) [%] | FeCl3 % soluble Aβ (Aβ1-42) [%] | ZnCl2 % soluble Aβ (Aβ1-42) [%] | without metal % soluble Aβ (Aβ1-42) [%] | amount of H2O2, without Aβ1-42 ([1]; ligand 1 eq/Cu(II) (0.4 μM)) [nmol] | amount of H2O2, without Aβ1-42 ([1]; ligand 2 eq/Cu(II)) [nmol] | amount of H2O2, 0.2 μM Aβ1-42 Cu/Aβ = 2 ([2]; ligand 1 eq/Cu(II) (0.4 μM)) [nmol] | amount of H2O2, 0.5 μM Aβ1-42 Cu/Aβ = 0.75 ([2]; ligand 1 eq/Cu(II) (0.4 μM)) [nmol] | amount of H2O2, 0.2 μM Aβ1-42 Cu/Aβ = 2 ([2]; ligand 2 eq/Cu(II)) [nmol] | amount of H2O2, 0.5 μM Aβ1-42 Cu/Aβ = 0.75 ([2]; ligand 2 eq/Cu(II)) [nmol] | logD at 3 min [3]
1 | Oc1cccc2cccnc12 [8-hydroxyquinoline, reference compound] | 70 ± 3 | 80 | 88 | 85 | 2.02 | 0.62 | 0.69 | 0.75 | 0.71 ± 0.05 | 0.62 | 2.1 ± 0.1
2 | Oc1cccc2ccc(Cc3ccc4cccc(O)c4n3)nc12 [Compound 1, 2,2′-methanediyl-bis(8-hydroxyquinoline)] | 60 ± 5 | 61 | 63 | 63 ± 4 | 0.54 | – | 0.75 ± 0.11 | 0.76 | – | – | 3.3 ± 0.1
3 | Cc1ccc2cccc(O)c2n1 [8-hydroxyquinaldine, reference compound] | 52 | 51 | 62 | 69 | – | – | – | – | – | – | 2.4 ± 0.1
4 | Oc1cccc2ccc(CC(Cc3ccc4cccc(O)c4n3)c3ccc4cccc(O)c4n3)nc12 [Compound 11, 2,2′,2″-(1,2,3-Propanetriyl)-tris(8-hydroxyquinoline)] | 48 | 43 | 45 | 48 | – | – | – | – | – | – | 3.7 ± 0.1
5 | Nc1cccc2cccnc12 [8-aminoquinoline, reference compound] | 40 | 58 | 67 | 66 ± 3 | – | – | – | – | – | – | 1.9 ± 0.1
6 | COc1ccc2ccc(Cc3ccc4ccc(OC)c(O)c4n3)nc2c1O.Cl.Cl [Compound 16, 2,2′-(methanediyl)-bis(7-methyloxy-8-hydroxy-2-quinolinium) dichloride] | 48 ± 3 | 44 ± 6 | 50 | 53 | – | – | 0.70 | – | – | – | –
7 | c1cnc2c(Oc3cccc4cccnc34)cccc2c1 [Compound 15, 8,8′-Oxydiquinoline] | 35 | 42 | 23 | 72 | – | – | 1.02 | – | – | – | 2 ± 0.1
8 | O=C(Nc1cccc2cccnc12)c1cccc2cccnc12 [Compound 24, N-8-quinolinyl-8-quinoline carboxamide] | 21 | 38 | 21 | 64 | 0.49 | – | 0.62 | 0.47 | – | – | 2.6 ± 0.1

— patent publication US20120277265A1, “NOVEL POLYQUINOLINE DERIVATIVES AND THE THERAPEUTIC USE THEREOF” (CENTRE NATIONAL DE LA RECHERCHE SCIENTIFIQUE (C.N.R.S.), priority 2005, published 2012)
